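How tested: cells in 96-well plates exposed to compound for 48 hours at five concentrations. TGI: concentration producing complete growth inhibition.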

Test systems include A549 NSCLC; HCT-15 colon; COLO 205 colon; LOX IMVI melanoma; HOP-62 NSCLC; SF-295 CNS; BT-549 breast; UACC-257 melanoma; HOP-92 NSCLC; MOLT-4 leukemia; TK-10 renal; DU-145 prostate; HS 578T breast; MDA-N; M14 melanoma; ACHN renal.
Holding throughout (assay): NCI-60 cell line screen, 48 h

As to `CC[C@@]1(O)C(=O)OCc2c1cc1n(c2=O)Cc2c-1nc1ccc(O)cc1c2[Si](C)(C)C(C)(C)C`, the TGI in the assay on A549 NSCLC came out at 1.19 µM; with HCT-15 colon, 8.81 µM; in the assay with COLO 205 colon it was 1.53 µM; with LOX IMVI melanoma, 0.163 µM; with HOP-62 NSCLC, 1.49 µM; in the assay with SF-295 CNS, 1.32 µM. Moreover, the TGI in the assay on BT-549 breast is 1.17 µM; in the assay on UACC-257 melanoma, 0.681 µM; with HOP-92 NSCLC, 2.31 µM; in the assay on MOLT-4 leukemia, 0.106 µM; with TK-10 renal, above 92.7 µM; with DU-145 prostate, 0.0142 µM. Further, the TGI is above 57.9 µM in the assay with HS 578T breast, 4.63 µM with MDA-N and below 0.0114 µM in the assay on M14 melanoma.

As to `Cc1cc(-n2nnc(C(=O)O)c2-c2ccccc2)c2ccc(Cl)cc2n1`, the TGI with A549 NSCLC, in the assay on HCT-15 colon, in the assay on COLO 205 colon, in the assay with LOX IMVI melanoma, with SF-295 CNS and in the assay with BT-549 breast was above 100 µM throughout. Moreover, the TGI with UACC-257 melanoma, in the assay with HOP-92 NSCLC, in the assay with ACHN renal, with MOLT-4 leukemia, in the assay with TK-10 renal and in the assay with DU-145 prostate was above 100 µM throughout. The TGI with HS 578T breast, in the assay on MDA-N and with M14 melanoma was above 100 µM in each case.

Turning to `O=C1NC(=O)c2ccccc2/C1=C/c1ccc2c(c1)OCO2`, the TGI in the assay on A549 NSCLC is above 100 µM; with HCT-15 colon it was 31.8 µM; in the assay on LOX IMVI melanoma, 46.4 µM; with HOP-62 NSCLC, 28.7 µM; in the assay with SF-295 CNS, 83.1 µM; in the assay with BT-549 breast, 50.8 µM. Besides, the TGI is 55.3 µM with UACC-257 melanoma; above 100 µM in the assay on HOP-92 NSCLC; 34.3 µM in the assay on ACHN renal; above 100 µM with MOLT-4 leukemia; above 100 µM in the assay with TK-10 renal; above 100 µM in the assay on DU-145 prostate. The TGI is 47.2 µM in the assay on HS 578T breast, above 100 µM in the assay on MDA-N and 76.5 µM in the assay on M14 melanoma.

`CC1C(NNC(N)=O)Oc2cc3c(cc2C1c1ccccc1O)OCO3` (stereo not given): the TGI in the assay on A549 NSCLC was above 100 µM; with HCT-15 colon it was above 100 µM; with LOX IMVI melanoma, above 100 µM; in the assay with HOP-62 NSCLC, above 100 µM; in the assay on SF-295 CNS it was 76.2 µM; in the assay with BT-549 breast, above 100 µM. Also, the TGI in the assay on UACC-257 melanoma is above 100 µM; in the assay with HOP-92 NSCLC, 50.4 µM; in the assay on ACHN renal, above 100 µM; with MOLT-4 leukemia, above 100 µM; in the assay on TK-10 renal it was above 100 µM; with DU-145 prostate, above 100 µM. The TGI in the assay on HS 578T breast was above 100 µM; in the assay with MDA-N, 76.7 µM; in the assay with M14 melanoma, above 100 µM.

For the molecule `COc1cc2ccc(C(=O)NCCCNC(=O)c3ccc4cc(OC)c(OC)cc4c3)cc2cc1OC`, the TGI with A549 NSCLC, in the assay on HCT-15 colon, with COLO 205 colon, in the assay on LOX IMVI melanoma, in the assay with HOP-62 NSCLC and in the assay with SF-295 CNS was above 100 µM throughout. Also, the TGI in the assay on BT-549 breast, with UACC-257 melanoma, in the assay with HOP-92 NSCLC, with ACHN renal, in the assay with TK-10 renal and with DU-145 prostate was above 100 µM throughout. Besides, the TGI in the assay on HS 578T breast, in the assay with MDA-N and in the assay on M14 melanoma was above 100 µM in each case.

Turning to `COC(=O)[C@@H]1CS(=O)(=O)C(C(C)C)N1C(C)=O` (stereo not given in full), the TGI with A549 NSCLC, with HCT-15 colon, in the assay on COLO 205 colon, in the assay with LOX IMVI melanoma, with HOP-62 NSCLC and with SF-295 CNS was above 100 µM in each case. The TGI with BT-549 breast, in the assay on UACC-257 melanoma, in the assay with HOP-92 NSCLC, in the assay on ACHN renal, in the assay on TK-10 renal and in the assay with DU-145 prostate was above 100 µM throughout. The TGI with HS 578T breast, in the assay on MDA-N and with M14 melanoma was above 100 µM throughout.

For `CC1CC[C@@]2(OC1)O[C@H]1[C@H](O)[C@H]3[C@@H]4CC[C@H]5C[C@@H](OC6OC(CO)C(OC7OC(CO)C(O)C(OC8OCC(O)C(O)C8O)C7OC7OC(CO)C(O)C(O)C7OC7OC(CO)C(O)C(O)C7O)C(O)C6O)[C@H](O)C[C@]5(C)[C@H]4CC[C@]3(C)[C@H]1[C@@H]2C` (stereo not given in full), the TGI in the assay on A549 NSCLC, in the assay with HCT-15 colon, in the assay on COLO 205 colon, in the assay on LOX IMVI melanoma, in the assay with HOP-62 NSCLC and in the assay with BT-549 breast was above 10 µM in each case. Further, the TGI in the assay with UACC-257 melanoma is above 10 µM; with HOP-92 NSCLC it was above 10 µM; in the assay on ACHN renal it was above 10 µM; in the assay with MOLT-4 leukemia, 1.19 µM; in the assay on TK-10 renal it was above 10 µM; in the assay with DU-145 prostate it was above 10 µM. For the same molecule, the TGI in the assay with HS 578T breast, in the assay on MDA-N and in the assay on M14 melanoma was above 10 µM throughout.

With `O=C(/C(=C(/O)c1ccccc1)c1nc2ccccc2sc1=O)c1ccccc1`, the TGI was above 100 µM in the assay on A549 NSCLC; above 100 µM in the assay with HCT-15 colon; above 100 µM in the assay with COLO 205 colon; above 100 µM in the assay with LOX IMVI melanoma; 44.1 µM in the assay with HOP-62 NSCLC; 74.9 µM in the assay on SF-295 CNS. In addition, the TGI is above 100 µM with BT-549 breast; 46.2 µM in the assay on UACC-257 melanoma; above 100 µM with HOP-92 NSCLC; above 100 µM with ACHN renal; above 100 µM with TK-10 renal; above 100 µM in the assay on DU-145 prostate. Further, the TGI is above 100 µM in the assay on HS 578T breast, above 100 µM in the assay with MDA-N and 33.3 µM with M14 melanoma.

For `CC(=O)n1cc(C2CC23N=C(c2ccccc2)OC3=O)c2ccccc21` (stereo not given), the TGI in the assay with A549 NSCLC was 59.9 µM; with HCT-15 colon, 58.9 µM; in the assay on COLO 205 colon it was 44.8 µM; with LOX IMVI melanoma, 35.8 µM; with HOP-62 NSCLC, above 100 µM; in the assay with SF-295 CNS it was above 100 µM. For the same molecule, the TGI in the assay with BT-549 breast was found to be 30.3 µM; in the assay with UACC-257 melanoma, 32.8 µM; in the assay on HOP-92 NSCLC, 52.5 µM; in the assay on ACHN renal, 38.3 µM; in the assay on TK-10 renal, 53.8 µM; in the assay with DU-145 prostate, 33.2 µM. For the same molecule, the TGI in the assay with HS 578T breast turned out to be 68.6 µM; in the assay with MDA-N, 81.7 µM; in the assay on M14 melanoma, 34.9 µM.

These data come from PubChem BioAssay (NCI).
